Counter-ions that a name gives are not always drawn. Like-named read-outs stand apart in the source and are kept apart here.
What was measured:
androgen receptor [1] = target: androgen receptor; set-up: method as in Sedlak et al.; details: published data; ref Sedlak et al.; cited from earlier work
human androgen receptor [2] = target: T1, human androgen receptor (Homo sapiens, UniProt P10275); assay: Gene reporter assay in AIZ-AR cells, agonist mode (luciferase); assay type: cell-based; details: for effect on luciferase activity in agonist mode: 24 h
T1 sequence (P10275 whole entry): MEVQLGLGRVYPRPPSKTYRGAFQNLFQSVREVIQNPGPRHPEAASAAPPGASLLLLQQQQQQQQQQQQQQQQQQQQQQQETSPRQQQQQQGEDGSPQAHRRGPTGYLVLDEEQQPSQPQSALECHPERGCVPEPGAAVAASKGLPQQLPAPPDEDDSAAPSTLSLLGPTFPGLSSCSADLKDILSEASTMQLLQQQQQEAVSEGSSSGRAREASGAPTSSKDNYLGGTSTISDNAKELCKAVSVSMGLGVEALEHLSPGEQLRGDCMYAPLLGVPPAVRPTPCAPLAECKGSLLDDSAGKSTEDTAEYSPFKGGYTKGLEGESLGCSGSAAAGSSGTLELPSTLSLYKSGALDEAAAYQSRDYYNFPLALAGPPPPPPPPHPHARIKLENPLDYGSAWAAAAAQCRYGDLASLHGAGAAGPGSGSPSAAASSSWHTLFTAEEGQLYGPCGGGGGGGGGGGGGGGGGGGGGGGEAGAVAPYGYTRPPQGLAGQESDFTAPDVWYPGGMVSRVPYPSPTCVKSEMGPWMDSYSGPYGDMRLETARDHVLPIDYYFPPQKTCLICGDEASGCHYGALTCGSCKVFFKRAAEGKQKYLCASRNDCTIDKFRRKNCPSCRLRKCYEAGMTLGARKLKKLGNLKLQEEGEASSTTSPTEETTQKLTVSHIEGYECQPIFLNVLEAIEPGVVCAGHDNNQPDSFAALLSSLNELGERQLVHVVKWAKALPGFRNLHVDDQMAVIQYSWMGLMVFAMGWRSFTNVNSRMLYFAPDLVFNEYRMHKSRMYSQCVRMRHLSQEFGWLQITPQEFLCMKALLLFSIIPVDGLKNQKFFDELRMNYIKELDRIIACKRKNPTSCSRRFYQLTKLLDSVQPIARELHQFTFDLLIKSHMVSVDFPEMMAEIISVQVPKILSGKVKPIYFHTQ
Method: (§1) AIZ-AR cells were seeded in 96-well plates at density 5x10^4 cells per well. […] After the treatments, cells were lysed and luciferase activity was measured in 96-well plate format using Tecan Infinite M2000 plate luminometer.
(§2) Dose-response analyses assays were performed in two different experimental layouts. […] Where appropriate, IC50 (half maximal inhibitory concentration) values were calculated.

androgen receptor [3] = target: androgen receptor; set-up: method as in Wilkinson et al.; details: published data; ref Wilkinson et al.; cited from earlier work
in vitro = assay type: cell-based; details: human
Method: (§3) AIZ-AR cells were seeded in 96-well plates at density 5x10^4 cells per well. […] Following the incubation, MTT assay was measured spectrophotometrically at 540 nm using Tecan Infinite M2000 plate luminometer.

AIZ-AR cells = assay: in vitro; assay type: cell-based; details: 24 h, MTT
Method: as §3

human androgen receptor [4] = target: T1, human androgen receptor; assay: Gene reporter assay in AIZ-AR cells, antagonist mode with testosterone (10 nM); assay type: cell-based
Method: as §1, §2

human androgen receptor [5] = target: T1, human androgen receptor; assay: Gene reporter assay in AIZ-AR cells, antagonist mode with DHT (100 nM); assay type: cell-based; details: antagonist mode, 24 h
Method: as §1, §2

[6] = log c -5, 24 h, MTT, read-out: % of viability
[7] = log c -6, 24 h, MTT, read-out: % of viability
[8] = log c -7, 24 h, MTT, read-out: % of viability
[9] = log c -8, 24 h, MTT, read-out: % of viability
[10] = log c -9, 24 h, MTT, read-out: % of viability
[11] = log c -10, 24 h, MTT, read-out: % of viability

Structure (SMILES) | viability at 24 h, 0.1 nM (in vitro) [%] | viability at 24 h, 1 nM (in vitro) [%] | viability at 24 h, 10 nM (in vitro) [%] | viability at 24 h, 100 nM (in vitro) [%] | viability at 24 h, 1 μM (in vitro) [%] | viability at 24 h, 10 μM (in vitro) [%] | further results
C[C@]12CCC(=O)C=C1CC[C@@H]1[C@@H]2[C@@H](O)C[C@@]2(C)[C@H]1CC[C@]2(O)C(=O)CO [Cortisol, cortisol] |  |  |  |  |  |  | Literature Log EC50 (androgen receptor [1]): > -5.00; potency weaker as compared to androgens (human androgen receptor [2]): 2–3 orders of magnitude; effect on luciferase activity in agonist mode (human androgen receptor [2]): induced luciferase activity; Log EC50 (human androgen receptor [2]; Clone 8, 24 h): -6.35 ± 0.11; Log EC50 (human androgen receptor [2]; Clone 14, 24 h): -6.49 ± 0.04; Literature Log EC50 (androgen receptor [3]): -8.22; viability at 24 h, 10 μM (in vitro; [6]): 105 ± 10.4%; viability at 24 h, 1 μM (in vitro; [7]): 107 ± 12.3%; viability at 24 h, 100 nM (in vitro; [8]): 107 ± 13.2%; viability at 24 h, 10 nM (in vitro; [9]): 106 ± 9.1%; viability at 24 h, 1 nM (in vitro; [10]): 109 ± 4.1%; viability at 24 h, 0.1 nM (in vitro; [11]): 100%
C#C[C@]1(O)CC[C@H]2[C@@H]3CCC4=Cc5oncc5C[C@]4(C)[C@H]3CC[C@@]21C [Danazol] | 100 | 106 ± 1.5 | 108 ± 6.9 | 109 ± 10.6 | 108 ± 11.6 | 114 ± 12.1 | 
CC#C[C@]1(O)CC[C@H]2[C@@H]3CCC4=CC(=O)CCC4=C3[C@@H](c3ccc(N(C)C)cc3)C[C@@]21C [Mifepristone, mifepristone] | 100 | 104 ± 2.8 | 102 ± 9.7 | 104 ± 18.2 | 94.7 ± 9.5 | 41.7 ± 1.1 | 
CC(=O)[C@H]1CC[C@H]2[C@@H]3CCC4=CC(=O)CC[C@]4(C)[C@H]3CC[C@]12C [17α-progesterone] |  |  |  |  |  |  | % of viability (AIZ-AR cells; log c -5): 92.0 ± 3.7%; % of viability (AIZ-AR cells; log c -6): 92.0 ± 3.7%; % of viability (AIZ-AR cells; log c -7): 95.0 ± 4.0%; % of viability (AIZ-AR cells; log c -8): 95.0 ± 4.0%; % of viability (AIZ-AR cells; log c -9): 98.2 ± 2.6%
C[C@H]1C[C@H]2[C@@H]3CCC4=CC(=O)C=C[C@]4(C)[C@@]3(Cl)[C@@H](O)C[C@]2(C)[C@@]1(O)C(=O)CO [Beclomethasone, beclomethasone] |  |  |  |  |  |  | % of viability (AIZ-AR cells; log c -5): 92.3 ± 2.1%; % of viability (AIZ-AR cells; log c -6): 98.4 ± 0.9%; % of viability (AIZ-AR cells; log c -7): 109.2 ± 5.7%; % of viability (AIZ-AR cells; log c -8): 106.5 ± 6.1%; % of viability (AIZ-AR cells; log c -9): 99.9 ± 3.9%
CC/C(=C(/CC)c1ccc(O)cc1)c1ccc(O)cc1 [Diethylstilbestrol, diethylstilbestrol] | 100 | 101 ± 5.1 | 102 ± 7.6 | 102 ± 5.1 | 98 ± 4.3 | 99.9 ± 7 | 
C[C@@H]1C[C@H]2[C@@H]3CCC4=CC(=O)C=C[C@]4(C)[C@@]3(F)[C@@H](O)C[C@]2(C)[C@@]1(O)C(=O)CO [Dexamethasone, dexamethasone] | 100 | 99.8 ± 3.9 | 114 ± 2 | 112.7 ± 1.1 | 111 ± 3.4 | 108 ± 2.6 | 
CC/C(=C(\c1ccccc1)c1ccc(OCCN(C)C)cc1)c1ccccc1 [Tamoxifen citrate, tamoxifen citrate salt] | 100 | 103 ± 4.3 | 107 ± 4.6 | 106 ± 3.8 | 88.5 ± 2.4 | 1.7 ± 0.8 | 
C[C@H]1C[C@H]2[C@@H]3CCC4=CC(=O)C=C[C@]4(C)[C@@]3(F)[C@@H](O)C[C@]2(C)[C@@]1(O)C(=O)CO [Betamethasone, betamethasone] | 100 | 105 ± 4 | 110 ± 7.3 | 109 ± 7.9 | 108 ± 14.6 | 101 ± 9.9 | 
C[C@]12CCC(=O)C[C@@H]1CC[C@@H]1[C@@H]2CC[C@]2(C)[C@@H](O)CC[C@@H]12 [5α-dihydrotestosterone] |  |  |  |  |  |  | viability at 24 h, 10 μM (in vitro; [6]): 104 ± 2%; viability at 24 h, 1 μM (in vitro; [7]): 108 ± 2.6%; viability at 24 h, 100 nM (in vitro; [8]): 114 ± 5.7%; viability at 24 h, 10 nM (in vitro; [9]): 109 ± 2.1%; viability at 24 h, 1 nM (in vitro; [10]): 108 ± 4.6%; viability at 24 h, 0.1 nM (in vitro; [11]): 100%
CC(=O)S[C@@H]1CC2=CC(=O)CC[C@]2(C)[C@H]2CC[C@@]3(C)[C@@H](CC[C@@]34CCC(=O)O4)[C@H]12 [Spironolactone, spironolactone] | 100 | 108 ± 1.5 | 112 ± 5.7 | 113 ± 10 | 98.9 ± 5.5 | 58.9 ± 2.5 | 
C[C@]12C[C@H](O)[C@H]3[C@@H](CCC4=CC(=O)CC[C@@]43C)[C@@H]1CC[C@@H]2C(=O)CO [Corticosterone, corticosterone] | 100 | 104 | 107 ± 2.5 | 111 ± 5.7 | 109 ± 6.5 | 105 ± 3.4 | 
C[C@]12CCC(=O)C=C1CC[C@@H]1[C@@H]2[C@@H](O)C[C@]2(C=O)[C@@H](C(=O)CO)CC[C@@H]12 [Aldosterone, aldosterone] |  |  |  |  |  |  | Literature Log EC50 (androgen receptor [1]): > -5.00; effect on luciferase activity in agonist mode (human androgen receptor [2]): did not significantly increased luciferase activity; Log EC50 (human androgen receptor [2]; Clone 8, 24 h): -6.03 ± 0.04; Log EC50 (human androgen receptor [2]; Clone 14, 24 h): -6.11 ± 0.02; Literature Log EC50 (androgen receptor [3]): > -5.00; viability at 24 h, 10 μM (in vitro; [6]): 97 ± 5.4%; viability at 24 h, 1 μM (in vitro; [7]): 98.6 ± 0.8%; viability at 24 h, 100 nM (in vitro; [8]): 99 ± 1.4%; viability at 24 h, 10 nM (in vitro; [9]): 99.4 ± 1%; viability at 24 h, 1 nM (in vitro; [10]): 110 ± 1.4%; viability at 24 h, 0.1 nM (in vitro; [11]): 100%
C[C@H]1C[C@@H]2[C@H]([C@@H](O)C[C@@]3(C)[C@H]2CC[C@]3(O)C(=O)CO)[C@@]2(C)C=CC(=O)C=C12 [Methyl-prednisolone, methylprednisolone] | 100 | 107 ± 3.1 | 111 ± 9.4 | 105 ± 8.9 | 105 ± 14.3 | 105 ± 16 | Log EC50 (human androgen receptor [2]; Clone 8, 24 h): -7.60 ± 0.43; Log EC50 (human androgen receptor [2]; Clone 14, 24 h): -7.48 ± 0.30; Literature Log EC50 (androgen receptor [3]): -8.75
CC(=O)[C@H]1CC[C@H]2[C@@H]3CCC4=CC(=O)CC[C@]4(C)[C@H]3CC[C@]12C [Progesterone, progesterone] | 100 | 98.7 ± 7.3 | 98.7 ± 12.2 | 99.8 ± 14.1 | 98.1 ± 13.9 | 91 ± 9.5 | 
O=C(c1ccc(OCCN2CCCCC2)cc1)c1c(-c2ccc(O)cc2)sc2cc(O)ccc12 [Raloxifene hydrochloride, raloxifene hydrochloride] | 100 | 103 ± 8.5 | 99.8 ± 4.3 | 106 ± 6.8 | 95.9 ± 10.3 | 7.1 ± 0.2 | 
CC/C(=C(\c1ccc(O)cc1)c1ccc(OCCN(C)C)cc1)c1ccccc1 [4-hydroxytamoxifen] | 100 | 101.8 ± 1 | 100 ± 5.4 | 104 ± 4.4 | 106 ± 3.8 | 9.2 ± 7.7 | Log IC50 (Testosterone 10 nM) (human androgen receptor [4]; Clone 8, 24 h): > -5.00; Log IC50 (Testosterone 10 nM) (human androgen receptor [4]; Clone 14, 24 h): > -5.00; Literature Log EC50 (androgen receptor [1]): > -5.00; Log EC50 (human androgen receptor [2]; Clone 8, 24 h): > -5.00; Log EC50 (human androgen receptor [2]; Clone 14, 24 h): > -5.00; Log IC50 (DHT 100nM) (human androgen receptor [5]; Clone 8): > -5.00; Log IC50 (DHT 100nM) (human androgen receptor [5]; Clone 14): > -5.00; Literature Log EC50 (androgen receptor [3]): > -5.00
C[C@]12C=CC(=O)C=C1CC[C@@H]1[C@@H]2[C@@H](O)C[C@@]2(C)[C@H]1CC[C@]2(O)C(=O)CO [Prednisolone, prednisolone] | 100 | 100.7 ± 0.8 | 104 ± 3.7 | 107 ± 5.2 | 104 ± 5.2 | 101 ± 8.3 | 
C[C@]12CC[C@H]3[C@@H](CCC4=CC(=O)CC[C@@]43C)[C@@H]1CC[C@@H]2O [Testosterone, testosterone] |  |  |  |  |  |  | viability at 24 h, 10 μM (in vitro; [6]): 105.3 ± 1%; viability at 24 h, 1 μM (in vitro; [7]): 105 ± 6.9%; viability at 24 h, 100 nM (in vitro; [8]): 103 ± 5.6%; viability at 24 h, 10 nM (in vitro; [9]): 108 ± 4.8%; viability at 24 h, 1 nM (in vitro; [10]): 108.6 ± 1%; viability at 24 h, 0.1 nM (in vitro; [11]): 100%
CC(=O)O[C@]1(C(C)=O)CC[C@H]2[C@@H]3C=C(Cl)C4=CC(=O)[C@@H]5C[C@@H]5[C@]4(C)[C@H]3CC[C@@]21C [Cyproterone acetate, cyproterone acetate] | 100 | 105 ± 1.7 | 105 ± 2 | 106 ± 5.7 | 99.4 ± 7.8 | 89.5 ± 6.6 | 
C[C@]12C=CC(=O)C=C1CC[C@H]1[C@@H]3C[C@@H](O)[C@](O)(C(=O)CO)[C@@]3(C)C[C@H](O)[C@@]12F [Triamcinolone, triamcinolone] | 100 | 101 ± 4.2 | 100 ± 8.2 | 105 ± 11.4 | 103 ± 11 | 101 ± 5.4 | 
C[C@]12CC[C@@H]3c4ccc(O)cc4CC[C@H]3[C@@H]1CC[C@@H]2O [17β-estradiole, estradiol] | 100 | 107 ± 4.3 | 110 ± 3.2 | 110 ± 6.2 | 110 ± 6.2 | 116 ± 16.4 | 

Source: paper PMC4374931 (PLoS ONE, 2015)
